For this test, the target named is 5-hydroxytryptamine receptor 6 (Homo sapiens, UniProt P50406). Put plainly: Antagonist activity at human 5HT6 receptor expressed in HeLa cells assessed as inhibition of 5-HT-induced cAMP accumulation. In kind it is functional, cell-based.
5-hydroxytryptamine receptor 6, sequence (P50406 whole entry): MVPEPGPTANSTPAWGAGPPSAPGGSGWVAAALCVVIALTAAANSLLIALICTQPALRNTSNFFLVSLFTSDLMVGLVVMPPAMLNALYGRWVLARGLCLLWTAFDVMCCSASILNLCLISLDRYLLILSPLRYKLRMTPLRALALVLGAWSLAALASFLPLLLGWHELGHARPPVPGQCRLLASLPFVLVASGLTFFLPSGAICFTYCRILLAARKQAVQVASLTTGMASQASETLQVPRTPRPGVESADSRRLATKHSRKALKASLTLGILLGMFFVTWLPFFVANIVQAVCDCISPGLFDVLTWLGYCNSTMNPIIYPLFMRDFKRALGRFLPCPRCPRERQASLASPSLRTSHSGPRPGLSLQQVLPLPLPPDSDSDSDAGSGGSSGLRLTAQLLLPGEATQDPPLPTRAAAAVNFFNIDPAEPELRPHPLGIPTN

Take `CN1CCC(c2n[nH]c3ccc(S(=O)(=O)c4ccc5ccccc5c4)cc23)CC1`: the half-maximal inhibitory concentration (IC50) stood at 102 nM and the Imax stood at 100%.
Take `CN1CCC(c2n[nH]c3ccc(S(=O)(=O)c4cccc5ccccc45)cc23)CC1`: the IC50 came out at 251 nM and the Imax stood at 100%.
For `CC(C)c1ccc(S(=O)(=O)c2ccc3[nH]nc(C4CCN(C)CC4)c3c2)cc1` the same measures were 108 nM and 100%.
Regarding `CN1CCC(c2n[nH]c3ccc(S(=O)(=O)c4cccc(Cl)c4)cc23)CC1`, the IC50 is 754 nM and the Imax turned out to be 95%.

These data come from ChEMBL document CHEMBL1781981, “Identification of a novel series of 3-piperidinyl-5-sulfonylindazoles as potent 5-HT6 ligands” (Bioorg Med Chem Lett, 2009).
